Measured values from patent US20080146650A1, “PHARMACEUTICAL COMPOSITION COMPRISING A-LIPOIC ACID FOR INFLAMMATORY DISEASES” (priority 2005, published 2008).
Each block holds one molecule with its values, some of them ahead of it.

Assays:
serum TNF-α = experiment: Serum TNF-α by ELISA after intravenous LPS in rats; type: in vivo, rat; details: for serum level of TNF-α: rats, LPS 10 mg/kg intravenous by tail vein
Procedure: (§1) Blood samples (0.5 ml) were taken from rats at 0, 1, 2, 3, and 4 hours after the administration of LPS (10 mg/kg) or vehicle. Serum concentrations of TNF-α and IL-1β were determined by using ELISA kits (Endogen, Woburn, Mass.).
(§2) Serum concentrations of TNF-α and IL-1β were determined by using Enzyme-Linked Immunosorbent Assay (ELISA) Kits (Endogen, Woburn, Mass.). […] Thus, we used TNF-α- and IL-1β in this experiment.
(§3) Inbred male Sprague-Dawley rats (150-200 g) were obtained from Orient (Charles River Korea, Seoul, Korea) and were maintained on standard laboratory chow and water ad libitum. All animal studies were reviewed and approved by the Institutional Animal Care and Use Committee of Chonbuk National University Medical School. The rats (180-220 g) were divided into 3 groups; control (n=6), LPS (10 mg/kg) (n=6), and LPS (10 mg/kg) plus LA (10 mg/kg/day) (n=6). Control buffer and LPS were injected intravenously through the tail vein. LA was injected intraperitoneally once per day for three days prior to LPS administration. At 12 hours postinjection of vehicle or LPS, rats were anesthetized with ketamine (100 mg/kg) and xylazine (10 mg/kg), and subsequently sacrificed by cervical dislocation. Heart and jejunum were harvested for RNase protection assay, Western blot, and immunohistochemistry.

serum IL-1β = experiment: Serum IL-1β by ELISA after intravenous LPS in rats; type: in vivo, rat; details: for serum level of IL-1β: rats, LPS 10 mg/kg intravenous by tail vein
Procedure: as §1, §2, §3

fractalkine mRNA = experiment: RNase protection assay (RPA) for fractalkine mRNA in HUVECs; type: cell-based, human
Procedure: (§4) Recombinant human TNF-α was purchased from R&D Systems (Minneapolis, Minn.). Anti-fractalkine antibody was purchased from Torrey Pines BioLabs (Houston, Tex.). LPS was purchased from Sigma-Aldrich (St. Louis, Mo.). LA (Thioctacid 600®) was obtained from VIATRIS GmbH & Co. KG (Frankfurt, Germany). Calcein-AM was purchased from Molecular Probe (Eugene, Oreg.). Media, sera, and other biochemical reagents were purchased from Sigma-Aldrich, unless otherwise specified. HUVECs were prepared from human umbilical cords by collagenase digestion as previously described (Kim W et al., FASEB J. 2003 17: 1337-19395. Homogeneity of endothelial cells in cultures was confirmed by the presence of factor VIII using immunofluorescence method. HUVECs were maintained in M-199 medium supplemented with 20% (vol/vol) fetal bovine serum at 37° C. in a 5% CO2atmosphere. The primary cultured cells used in this study were between 2 and 4 passages.
A part of cDNA of human fractalkine (nucleotides 482-893, GenBank accession NM002996) was amplified by PCR and subcloned into pBluescript II KS+ (Stratagene, La Jolla, Calif.). After linearizing with EcoRI, ^32P-labeled antisense RNA probes were synthesized by in vitrotranscription using T7 polymerase (Ambion Maxiscript kit; Ambion, Austin, Tex.) and gel purified. RPA was performed on total RNAs using the Ambion RPA kit (Ambion, Austin, Tex.). An antisense RNA probe of human cyclophilin (nucleotides 135-239, GenBank accession X52856) was used as an internal control for RNA quantification.

fractalkine protein = experiment: Western blot analysis of fractalkine protein in HUVECs; type: cell-based, human
Procedure: as §4
Western blot analyses were performed as previously described (Aim S Y et al., Am J Pathol 2004 164: 1663-1672). Samples were mixed with sample buffer, boiled for 10 minutes, separated by SDS-PAGE electrotransfered to nitrocellulose membranes. The nitrocellulose membranes were blocked by incubation in blocking buffer, incubated with anti-fractalkine monoclonal antibody, washed, and incubated with horseradish peroxidase-conjugated secondary antibody. […]

NF-κB (p65/p50) = experiment: EMSA for NF-κB binding activity in nuclear extracts of HUVECs; type: cell-based, human
Procedure: EMSA for NF-κB proteins was performed as previously described (Kim I et al., J Biol Chem 2001 276: 7614-7620). Briefly, the cells were lysed in a hypotonic buffer (10 mmol/L HEPES, pH 7.9, 1.5 mmol/L MgCl2, 10 mmol/L KCl, 0.5 mmol/L DTT, 0.5 mmol/L PMSF) containing 0.6% NP-40 and centrifuged at 4000 rpm for 15 min. The pellet was lysed in […] of a high salt buffer (20 mmol/L HEPES, pH 7.9, 420 mmol/L NaCl, 25% glycerol, 1.5 mmol/L MgCl2, 0.2 mmol/L EDTA, 0.5 mmol/L PMSF, 0.5 mmol/L DTT) for 20 min on ice. Seventy five microliter of storage buffer (20 mmol/L HEPES, pH7.9, 100 mmol/L NaCl, 20% glycerol, 0.2 mmol/L EDTA, 0.5 mmol/L PMSF, 0.5 mmol/L DTT) was added, agitated for 10 sec by vortexing, and centrifused at 14,000 rpm for 20 min. Nuclear extracts ([…]) were incubated with approximately 20,000 cpm of ^32P-labeled NF-κB binding site oligomer 5′-[…]-3′ (SEQ ID NO: 1) (Santa Cruz Biotechnology, Santa Cruz, Calif.) for […] at 20 C. EMSA for SP-1 protein was performed with biotin-labeled SP-1 binding site oligomer 5′-[…] (SEQ ID NO: 2) and signals were detected by chemiluminescent imaging according to the manufacturer's protocol (EMSA Gel-Shift. Kit; Panomics, Redwood City, Calif.).
We previously reported that NF-κB is involved in TNF-α induced fractalkine expression in HUVECs (Ahn S Y et al., Am J Pathol 2004 164: 1663-1672). […]

[1] = test system: adhesion of monocytes to HUVECs; experiment: Monocyte adhesion assay on HUVECs; type: cell-based, human; details: for increase in the adhesion of monocytes compared to treatment with control buffer: stimulation of HUVECs for 6 hours, TNF-α 10 ng/ml or IL-1β 15 ng/ml
Excerpt: Human peripheral blood monocytes were isolated from fresh blood of healthy volunteers by Ficoll-Paque gradient centrifugation. The study protocol and informed consent forms were approved by the Chonbuk. National University Hospital Review Board. Monocytes were isolated by negative selection using magnetic beads (Miltenyi Biotec, Bergisch Gladbach, Germany) (Ancuta P et al., J Exp Med 2003 197: 1701-1707). The purity of the monocyte fraction was 93-95% as determined by staining with anti-CD14, anti-CD33, anti-CD16b, and anti-CD56 mAbs and FACScan analysis (Becton Dickinson, Franklin Lakes, N.J.). Monocyte-endothelial adhesion was determined by fluorescent labeling of monocytes by a method described previously (Kim W. et al., Arterioscler Thromb Vase Biol 2003 23: 1377-1383). A number of monocytes adhered to HUVECs was expressed as percent calculated by the formula: % signal/total signal).

[2] = test system: fractalkine expression in rat heart; experiment: Immunohistochemical analysis of fractalkine expression in heart of LPS-induced endotoxemia rats; type: in vivo; details: LA 10 mg/kg/day for 3 days before LPS 10 mg/kg i.v., 12 hours
Procedure: as §3
(§5) After sacrifice, the hearts and jejunums were quickly excised, rinsed with PBS, and frozen in OCT in methyl-butane on dry ice. Frozen tissue blocks were sectioned at […], and 8-12 sections of heart or jejunum from each rat were incubated with anti-fractalkine antibody at 4 C overnight. […] Fractalkine expression was semi-quantitated by grading the degree of immunostaining (very strong=5, strong=4, moderate=3, weak=2, none=1). […]

[3] = test system: fractalkine expression in rat small intestine; experiment: Immunohistochemical analysis of fractalkine expression in small intestine of LPS-induced endotoxemia rats; type: in vivo; details: LA pretreatment before LPS, 12 hours, FIGS. 7a, 7b
Procedure: as §3, §5

SP-1 = experiment: EMSA for SP-1 binding activity in nuclear extracts of HUVECs; details: FIG. 5b
Procedure: Briefly, the cells were lysed in a hypotonic buffer (10 mmol/L HEPES, pH 7.9, 1.5 mmol/L MgCl2, 10 mmol/L KCl, 0.5 mmol/L DTT, 0.5 mmol/L PMSF) containing 0.6% NP-40 and centrifuged at 4000 rpm for 15 min. […] Seventy five microliter of storage buffer (20 mmol/L HEPES, pH7.9, 100 mmol/L NaCl, 20% glycerol, 0.2 mmol/L EDTA, 0.5 mmol/L PMSF, 0.5 mmol/L DTT) was added, agitated for 10 sec by vortexing, and centrifused at 14,000 rpm for 20 min. […] EMSA for SP-1 protein was performed with biotin-labeled SP-1 binding site oligomer 5′-[sequence]

effect on expression of fractalkine mRNA induced by TNF-α and IL-1β together (fractalkine mRNA; TNF-α 10 ng/ml and IL-1β 15 ng/ml together, FIG. 4c): suppressed
effect on TNF-α- and/or IL-1β-induced NF-κB (p65/p50) binding activity (NF-κB (p65/p50); TNF-α 10 ng/ml and/or IL-1β 15 ng/ml, LA 4 mmol/L, FIG. 5a): suppressed
effect on TNF-α- and/or IL-1β-induced SP-1 binding activity (SP-1): decreased
Molecule: O=C(O)CCCCC1CCSS1 (stereo not shown) [LA, 1,2-dithiolane-3-pentanoic acid]
effect on LPS-increased serum TNF-α (serum TNF-α; rats pretreated with LA, then LPS, FIG. 1a): significantly inhibited
effect on LPS-increased serum IL-1β (serum IL-1β; rats pretreated with LA, then LPS, FIG. 1b): significantly inhibited
suppression of IL-1β-induced expression of fractalkine mRNA (fractalkine mRNA; IL-1β 15 ng/ml, LA 4 mmol/L, FIG. 4b): 70-80%
suppression of TNF-α-induced expression of fractalkine mRNA (fractalkine mRNA; TNF-α 10 ng/ml, LA 4 mmol/L, FIG. 4a): 70-80%
effect on TNF-α- and/or IL-1β-induced expression of fractalkine protein (fractalkine protein): decreased
effect on basal NF-κB (p65/p50) binding activity (NF-κB (p65/p50); LA alone): no effect
decrease in monocyte adhesion to IL-1β-stimulated HUVECs ([1]; IL-1β 15 ng/ml, FIG. 6a, 6b): 76%
decrease in monocyte adhesion to TNF-α-stimulated HUVECs ([1]; TNF-α 10 ng/ml, FIG. 6a, 6b): 63%
effect on HUVEC adhesiveness for monocytes, substance alone ([1]; unstimulated HUVECs): no effects
effect on LPS-induced fractalkine expression in arterial endothelial cells, endocardium, and endocardial surface of cardiac valves [2]: dramatically suppressed
effect on LPS-induced fractalkine expression in arterial endothelial cells and villous endothelium [3]: dramatically suppressed
effect on basal SP-1 binding activity (SP-1; LA alone): no effect

Molecule: IL-1β: proinflammatory cytokine used to stimulate HUVECs
increase in the adhesion of monocytes compared to treatment with control buffer [1]: 4 fold

Molecule: TNF-α
increase in the adhesion of monocytes compared to treatment with control buffer [1]: 5 fold

Molecule: lipopolysaccharide [LPS]
serum level of TNF-α (serum TNF-α; 3 hours after LPS): 975 ± 121 pg/mL
serum level of TNF-α (serum TNF-α; 4 hours after LPS): 0 pg/mL
serum level of IL-1β (serum IL-1β; 1 hour after LPS): 104 ± 20 pg/mL
serum level of IL-1β (serum IL-1β; 2 hours after LPS): 232 ± 45 pg/mL
serum level of IL-1β (serum IL-1β; 3 hours after LPS): 212 ± 19 pg/mL
